Experimental data: US7807368B2, “Cyclin-dependent kinase inhibitors as targets for opiod growth factor treatment” (priority 2006, dated 2010)

Key:
Format in all cases: cell-based, human
[1] = tested on: p16; assay: Western blot of p16, other CKIs and Cdk4 in SCC-1 cells; settings: for p16 expression: synchronized SCC-1 cells, 3 h, 10^-6 M OGF, 10^-5 M naloxone
Description: Synchronized cells (˜2×10^6) from each treatment were solubilized in 200 μl RIPA buffer (1×PBS, 10 μM IGEPAL, 1 mg/ml SDS, 5 mg/ml deoxycholic acid), containing protease and phosphatase inhibitors (2 μg/ml aprotinin, 3 mg/ml phenylmethyl sulfonyl fluoride (PMSF), 1 mM sodium orthovanidate, 1 μM okadaic acid). Total protein concentrations were measured using the DC protein assay kit (Bio-Rad Laboratories, Hercules, Calif.). Equal amounts of protein (40 μg) were subjected to 10% SDS-PAGE followed by transfer of proteins onto polyvinylidene difluoride (Millipore, Billerica, Mass.) using standard protocols. The following antibodies were purchased from commercial sources: phospho-Rb (Ser795), phospho-Rb (Ser807/811) (Cell Signaling Technology, Beverly, Mass.); phospho-Rb (Thr821) (Biosource, Camarillo, Calif.); Cdk4, cyclin D1, p15, p16, p18, p19 (Santa Cruz Biotechnology, Santa Cruz, Calif.); total Rb, p21, p27 (BD PharMingen, San Diego, Calif.); β-actin (Clone AC-15, Sigma). The following dilutions of primary antibodies were used to detect respective proteins. 1:200 phospho-Rb (Ser795), 1:200 phospho-Rb (Ser807/811); 1:200 phospho-Rb (Thr821); 1:200 Cdk4, 1:200 cyclin D1, 1:100 p16; 1:200 total Rb, 1:200 p21, 1:100 p27. Membranes were probed with secondary anti-rabbit or anti-mouse horseradish peroxidase-conjugated antibodies (GE Healthcare-Amersham Biosciences, Piscataway, N.J.); blots were developed using a chemiluminescence Western blotting detection system (GE Healthcare-Amersham Biosciences).
To determine equal loading of total protein samples, blots were reprobed with monoclonal antibody against β-actin at a dilution of 1:2000. If necessary, membranes were stripped in stripping buffer (62.5 mM Tris-HCl and 100 mM β-mercaptoethanol/2% SDS, pH 6.7) at 50° C. before being re-probed. Means and SE were determined from 3 or more independent experiments.
(§1) To quantify expression levels or kinase activity, the optical density of each band was determined by densitometry and analyzed by QuickOne (Bio-Rad Laboratories). Each value was normalized to β-actin from the same blot. To report the changes due to OGF treatment, the fold increase was calculated by dividing the normalized value from the OGF treated samples by the normalized value of control samples at each time point; thus, increases due to OGF have values greater than one, and decreases due to OGF have values less than one.
(§2) The p16-targeted siRNAs (antisense:5′ […]-3′; sense (SEQ ID NO:5): 5′ […]-3′(SEQ ID NO:6) were obtained as ready-annealed, purified duplex probes (Invitrogen, Carlsbad, Calif.). For transfection, 2×10^5 cells per well were seeded in 6-well plates containing 1 ml of serum-free media without antibiotics. In each well, 20 nM of p16-siRNA or control siRNA solutions in serum-free media were added. Cells were incubated for 4 h at 37° C. prior to the addition of OGF. Cultures were incubated for additional 20 h, and then 1 ml fresh complete media either lacking or containing OGF was added. At the indicated time points, cells were collected for growth curves or Western blotting. Three or more independent experiments were conducted. The control siRNAs were purchased from Ambion.

[2] = tested on: p16; assay: Western blot of p16 in CAL-27 cells; settings: CAL-27 cells transfected with p16 siRNA
Description: (§3) The SCC-1 (UM-SCC-1) cell line was obtained from the University of Michigan Cancer Research Laboratory, and CAL-27 and SCC-4 cells were obtained from the American Type Culture Collection (Manassas, Va.). SCC-1 and CAL-27 cells were cultured in DMEM media, whereas SCC-4 cells were grown in 1:1 Hams F-12 DMEM media. All media was supplemented with 10% fetal bovine serum (HyClone, Logan, Utah), 1.2% sodium bicarbonate, and 5000 units/ml penicillin, 5 μg/ml streptomycin and 10 μg/ml neomycin. OGF was purchased from Sigma-Aldrich (St. Louis, Mo.), dissolved in sterile water, and used at a final concentration of 10^−6 M.
(§4) Synchronized cells (˜2×10^6) from each treatment were solubilized in 200 μl RIPA buffer (1×PBS, 10 μM IGEPAL, 1 mg/ml SDS, 5 mg/ml deoxycholic acid), containing protease and phosphatase inhibitors (2 μg/ml aprotinin, 3 mg/ml phenylmethyl sulfonyl fluoride (PMSF), 1 mM sodium orthovanidate, 1 μM okadaic acid). Total protein concentrations were measured using the DC protein assay kit (Bio-Rad Laboratories, Hercules, Calif.). Equal amounts of protein (40 μg) were subjected to 10% SDS-PAGE followed by transfer of proteins onto polyvinylidene difluoride (Millipore, Billerica, Mass.) using standard protocols. […]

[3] = tested on: p16; assay: Western blot of p16 in SCC-4 cells; settings: SCC-4 cells transfected with p16 siRNAs, 72 h
Description: as §3, §4

[4] = tested on: SCC-1 cells; assay: Growth of SCC-1 cells transfected with p16 siRNA or negative control siRNA; settings: SCC-1 cells transfected with p16 siRNA, exposed to OGF for 96 h
Description: as §2

[5] = tested on: SCC-1 cells; assay: siRNA knockdown of OGFr, growth of SCC-1 cells
Description: siRNA knockdown of OGFr. […] For transfection, 5×10^4 cells per well were seeded in 6-well plates containing 1 ml of serum-containing media without antibiotics. In each well, 20 nM OGFr-siRNA or control siRNA solutions in serum-free media were added. Cells were incubated for 4 h at 37° C. prior to the addition of OGF. Cultures were incubated an additional 20 h, and then 1 ml fresh complete media either lacking or containing OGF was added. […] Two independent experiments were conducted. The control siRNAs were purchased from Ambion.

[6] = tested on: p21; assay: Western blot of p21, p27 and Cdk2 in BxPC-3 cells; settings: synchronized BxPC-3 cells, 9 hours, 10^-6 M OGF, 10^-5 M naloxone
Description: Synchronized cells (2×10^6) from each treatment were solubilized in 200 μl RIPA buffer (1×PBS, 10 μM IGEPAL, 1 mg/ml SDS, 5 mg/ml deoxycholic acid), containing protease and phosphatase inhibitors (2 μg/ml aprotinin, 3 mg/ml phenylmethyl sulfonyl fluoride, 1 mM sodium orthovanidate, 1 μM okadaic acid). Total protein concentrations were measured using the DC protein assay kit (Bio-Rad Laboratories, Hercules, Calif.). Equal amounts of protein (40 μg) were subjected to 10% SDS-PAGE followed by transfer of proteins onto polyvinylidene difluoride (Millipore, Billerica, Mass.) using standard protocols.
The following antibodies were purchased from commercial sources: phospho-Rb (Ser795), phospho-Rb (Ser807/811) (Cell Signaling Technology, Beverly, Mass.); Cdk2, p57 (Santa Cruz Biotechnology, Santa Cruz, Calif.); p21, p27, total Rb (BD PharMingen, San Diego, Calif.); β-actin (Clone AC-15, Sigma-Aldrich).
Membranes were probed with secondary anti-rabbit or anti-mouse horseradish peroxidase-conjugated antibodies (GE Healthcare-Amersham Biosciences, Piscataway, N.J.), and developed using a chemiluminescence Western blotting detection system.
To determine equal loading of total protein samples, blots were re-probed with monoclonal antibody against β-actin at a dilution of 1:2000. If necessary, membranes were processed in stripping buffer (62.5 mM Tris-HCI and 100 mM β-mercaptoethanol/2% SDS, pH 6.7) at 50° C. before being re-probed.
as §1, with “treatment, we calculated” for “treatment,”, “increase” for “increase was calculated”, “one. For all Western blot analyses, 3 or more independent experiments were performed.” for “one.”
The p21-targeted siRNAs were obtained from Santa Cruz Biotechnology, and negative control siRNAs were purchased from Ambion (Ambion, Inc., Austin, Tex.). For transfection, 2×10^5 cells per well were seeded in 6-well plates containing 1 ml of media without antibiotics. For each well, 1 μl of siRNA stock (20 μM) was mixed with 175 μl of serum-free media. Two μl of Oligofectamine reagent (Invitrogen, Carlsbad, Calif.) was added to prewashed cells in each well, making the final concentration for siRNA approximately 20 nM. Cells were incubated for 4 hours at 37° C. prior to the addition of OGF. Eighteen hours later, 1 ml fresh complete media with or without OGF was added to the cultures; media and OGF were replaced daily. At the indicated time points, cells were collected for growth curves or Western blotting.

p16 siRNA: p16-targeted siRNA duplex (SEQ ID NO:5 and 6) from Invitrogen (chain 1 ACACCGCUUCUGCCUUUUCUU; chain 2 GAAAAGGCAGAAGCGGUGUUU; chemistry not given here)
p16 protein level compared to untransfected cells ([1]; SCC-1 cells transfected with p16 siRNA, after 72 h): significantly reduced levels
p16 levels relative to control cells [2]: significantly reduced p16 levels
p16 protein level compared to control cells [3]: significantly reduced levels
effect of p16 knockdown on OGF growth inhibition [4]: blocked OGF inhibitory action

O=C1CC[C@@]2(O)[C@H]3Cc4ccc(O)c5c4[C@@]2(CCN3CC2CC2)[C@H]1O5 [NTX]
effect on growth of OGFr-siRNA cultures ([5]; SCC-1 cells subjected to OGFr-siRNA, 10^-6 M): no further effects
increase in number of cells ([5]; control siRNA-exposed SCC-1 cells, 10^-6 M, 96 h): 27%
increase in number of cells ([5]; wt SCC-1 cells, 10^-6 M, 96 h): 24%

OGFr-siRNA: OGFr-targeted siRNA duplex (SEQ ID NO:3 and 4) from Ambion (chain 1 UAGAAACUCAGGUUUGGCG; chain 2 CGCCAAACCUGAGUUUCUA; listed as RNA, chemistry not given here)
more cells than wt and control siRNA-treated cultures ([5]; 20 nM siRNA, 96 h): approximately 19%

C=CCN1CC[C@]23c4c5ccc(O)c4O[C@H]2C(=O)CC[C@@]3(O)[C@H]1C5 [naloxone]
p21 expression [6]: no effect
p21 expression ([6]; listed as NAL): no change
p16 expression [1]: no effect
p16 expression ([1]; listed as NAL): no change
